Experimental data from US20100129370A1, “Trefoil Factors and Methods of Treating Proliferation Disorders Using Same” (priority 2004, published 2010).

Experiments:
Type in all cases: cell-based, human
TFF1 = TFF1 transcript levels (RT-PCR) in MCF7 cells treated with E2 or tamoxifen; details: 10 nM E2 or 1 μM TAM, 24 hours, FIG. 9A
Method: (§1) MCF7 cells produce endogenous levels of TFF1. MCF7 cells were cultured in phenol red free RPMI 1640 containing 10% dextran coated charcoal stripped fetal bovine serum in a 6 well plate for 24 hours. Then the cells were changed to treatment media containing 10 nM E2 or 1 μM TAM and cultured for 24 hours in the same. Untreated cells cultured in serum free media acted as controls.

[1] = tested on: MCF7-VECTOR and MCF7-TFF3 cells; experiment: Total cell number assay in estrogen-depleted media with estrogen supplement; details: estrogen supplemented to estrogen-depleted media, FIG. 10A
Method: (§2) MCF7-VECTOR and MCF7-TFF3 cells were cultured in phenol red free RPMI 1640 media with 10% dextran coated charcoal stripped fetal bovine serum.

MCF-TFF3 cells = experiment: Soft agar colony formation in estrogen-depleted media with estrogen added; details: estrogen added to estrogen-depleted media, MCF-TFF3, FIG. 10B
Method: as §2

TFF3 promoter = TFF3 promoter activity in MCF-7 cells treated with E2 or TAM; details: 24 hours treatment, FIG. 7B, p<0.05
Method: as §1, with “It was” for “MCF7 cells produce endogenous levels”, “interest to determine if the expression of TFF3 is related to estrogen receptor status.” for “TFF1.”

TFF3 = TFF3 transcript levels (RT-PCR) in MCF7 cells treated with E2 or TAM; details: 10 nM E2 or 1 μM TAM, 24 hours, FIG. 7A
Method: RT-PCR was performed in a final volume of […] containing 0.2 μg of mRNA template, 0.6 μM primers, […] of enzyme mix, 400 μM of each dNTP, 10 reaction buffer, and 10 Q-Solution by use of the Qiagen One-step RT-PCR kit. RNA template was reverse-transcribed into cDNA for 30 min at 50° C.; Hotstart TaqDNA polymerase was activated by heating for 15 min at 95° C.; the denatured cDNA templates were amplified by the following cycles: 94° C./30 s, 55° C./30 s, and 72° C./60 s. A final extension was performed for 10 min at 72° C. In order to compare the PCR products semiquantitatively, 15-40 cycles of PCR (annealing temperature 55° C.) were performed to determine the linearity of the PCR amplification, and the amplified β-actin cDNA served as an internal control for cDNA quantity and quality. All RNA samples were treated with DNase I to avoid genomic DNA contaminations.
as §1, with “It was” for “MCF7 cells produce endogenous levels”, “interest to determine if the expression of TFF3 is related to estrogen receptor status.” for “TFF1.”

TFF1 promoter = TFF1 promoter activity in MCF7 cells treated with E2 or TAM; details: 24 hours treatment, FIG. 9B
Method: as §1

MCF-7-TamR cells = experiment: Cell morphology assay, MCF-7-TamR cells; details: single agent, 48 h, FIG. 19
Method: Tamoxifen resistant MCF-7-Tam^R cells were plated at a concentration of 5×10^3 cells/well in 96-well plates in 100 μl of phenol red free RPMI 1640 medium containing dextran coated charcoal stripped 10% FBS. The plates were incubated at 37° C. for 24 h to allow the cells to reattach and re-equilibrate. Without removing any medium, anti-TFF3 antibody and/or tamoxifen were then added at twice the final concentration in a volume of 100 μl of the culture media. After 48 h images of cells were taken at 10× magnification under phase contrast microscope (Olympus IX70).
Cells were plated in phenol red free RPMI 1640 medium containing dextran coated charcoal stripped 10% FBS at 5×10^3 cells/100 μl/well in 96-well plates. After 24 hours incubation, anti-TFF3 antibody and/or tamoxifen (TAM) were then added at twice the final concentration in a volume of 100 μl. The cells were then taken photos using Olympus phase contrast microscope under 10× magnification. CK-09 is the pre-immune sera for the rabbit polyclonal antibodies of human TFF3 (anti-09).

CEACAM6 gene = experiment: CEACAM6 luciferase reporter assay in MCF-7 cells; details: MCF-7 co-transfected with expression plasmid, 36 hours post transfection

| Compound | transcript levels of TFF1 (TFF1) | total cell number [1] | soft agar colony numbers (MCF-TFF3 cells) | TFF3 promoter activity (TFF3 promoter) | transcript levels of TFF3 (TFF3) | TFF1 promoter activity (TFF1 promoter) | cell morphology / cell death (MCF-7-TamR cells) | stimulation of CEACAM6 expression compared with control vector (CEACAM6 gene) |
| --- | --- | --- | --- | --- | --- | --- | --- | --- |
| C[C@]12CC[C@@H]3c4ccc(O)cc4CC[C@H]3[C@@H]1CC[C@@H]2O [E2, estradiol] | very significant increase | brings back the total cell number to the control cells | further increases the colony numbers significantly | increase | very high increased transcript levels | increase | – | – |
| CC/C(=C(\c1ccccc1)c1ccc(OCCN(C)C)cc1)c1ccccc1 [TAM, tamoxifen] | very significant increase | – | – | increase | significantly but not as high transcript levels | increase | look healthy and similar to untreated control | – |
| TFF3: wild type human TFF3 expressed from plasmid in MCF-7 cells (EEYVGLSANQCAVPAKDRVDCGYPHVTPKECNNRGCCFDSRIPGVPWCFKPLQEAECTF) | – | – | – | – | – | – | – | two fold |
